Laboratory results as given in patent publication US6737383B1, “Herbicidal oxadiazolidines” (priority 1999, dated 2004).

Legend:
corn = experiment: Test B pre/postemergence corn; assay type: in vivo, Zea mays
Procedure, shortened: (§1)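 Herbicidal effect was estimated by eye on a ten-point control scale after plants spent twelve to sixteen days in a greenhouse following soil or foliar treatment. Foliar sprays targeted plants at one to four leaves; all doses were formulated in a non-phytotoxic solvent with surfactant.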

crabgrass = experiment: Test B pre/postemergence crabgrass; assay type: in vivo, Digitaria sanguinalis
Procedure, shortened: as §1

rape = experiment: Test B pre/postemergence rape; assay type: in vivo, Brassica napus
Procedure, shortened: as §1

bedstraw = experiment: Test B pre/postemergence bedstraw; assay type: in vivo, Galium aparine
Procedure, shortened: as §1

wheat = experiment: Test B pre/postemergence wheat; assay type: in vivo, Triticum aestivum
Procedure, shortened: as §1

soybean = experiment: Test B pre/postemergence soybean; assay type: in vivo, Glycine max
Procedure, shortened: as §1

rice = experiment: Test B flood test rice; assay type: in vivo, Oryza sativa
Procedure, shortened: (§2)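 Flood test on plants grown to the 2-leaf stage; treated plants kept in greenhouse twelve to sixteen days, then visually rated against controls on a 0 (no effect) to 10 (complete control) scale.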

smallflower flatsedge = experiment: Test B flood test smallflower flatsedge; assay type: in vivo, Cyperus difformis
Procedure, shortened: as §2

velvetleaf = experiment: Test B pre/postemergence velvetleaf; assay type: in vivo, Abutilon theophrasti
Procedure, shortened: as §1

surinam grass = experiment: Test B pre/postemergence surinam grass; assay type: in vivo, Brachiaria decumbens
Procedure, shortened: as §1

duck salad = experiment: Test B flood test duck salad; assay type: in vivo, Heteranthera limosa
Procedure, shortened: as §2

cocklebur = experiment: Test B pre/postemergence cocklebur; assay type: in vivo, Xanthium strumarium
Procedure, shortened: as §1

wild oat = experiment: Test B pre/postemergence wild oat; assay type: in vivo, Avena fatua
Procedure, shortened: as §1

sugar beet = experiment: Test B pre/postemergence sugar beet; assay type: in vivo, Beta vulgaris
Procedure, shortened: as §1

giant foxtail = experiment: Test B pre/postemergence giant foxtail; assay type: in vivo, Setaria faberii
Procedure, shortened: as §1

purple nutsedge = experiment: Test B pre/postemergence purple nutsedge; assay type: in vivo, Cyperus rotundus
Procedure, shortened: as §1

blackgrass = experiment: Test B pre/postemergence blackgrass; assay type: in vivo, Alopecurus myosuroides
Procedure, shortened: as §1

pigweed = experiment: Test B pre/postemergence pigweed; assay type: in vivo, Amaranthus retroflexus
Procedure, shortened: as §1

bamyardgrass = experiment: Test B flood test barnyardgrass; assay type: in vivo, Echinochloa crus-galli
Procedure, shortened: as §2

morningglory = experiment: Test B pre/postemergence morningglory; assay type: in vivo, Ipomoea hederacea
Procedure, shortened: as §1

[1] = Postemergence, Rate 62 g/ha, scale 0 to 10, 0 is no effect, 10 is complete control
[2] = Postemergence, Rate 125 g/ha, scale of 0 to 10 where 0 is no effect and 10 is complete control
[3] = Postemergence, Rate 250 g/ha, scale of 0 to 10, 0 is no effect, 10 is complete control
[4] = Postemergence, Rate 500 g/ha, scale of 0 to 10 where 0 is no effect and 10 is complete control
[5] = Preemergence, Rate 62 g/ha, scale 0 to 10 (0 no effect, 10 complete control)
[6] = Preemergence, Rate 125 g/ha, scale of 0 to 10 where 0 is no effect and 10 is complete control
[7] = Preemergence, Rate 500 g/ha, scale of 0 to 10 where 0 is no effect and 10 is complete control
[8] = Rate 62 g/ha, flood test species, Pre-emergence, visual evaluation after twelve to sixteen days
[9] = Rate 125 g/ha, under heading Pre-emergence, flood test species, visual evaluation after twelve to sixteen days
[10] = Rate 250 g/ha, Pre-emergence (flood test species), scale 0 to 10, 0 is no effect, 10 is complete control
[11] = Rate 500 g/ha, Pre-emergence section of Table B, 0 to 10 scale (0 no effect, 10 complete control)

`CC(C)N(C(=O)n1oc(=O)n(CC2=NOCCC2)c1=O)c1ccc(F)cc1` [Compound 601] was tested, and the “Plant response rating, Corn” value (corn; [1]) was 0, the “Plant response rating, Corn” value (corn; [2]) was 0 and the “Corn plant response rating” value (corn; [3]) was 0. For the same compound, the “Plant response rating, Corn” value (corn; [4]) was 0, the “Corn plant response rating” value (corn; [5]) was 0 and the “Corn plant response rating” value (corn; [6]) was 0. For the same compound, the “Corn plant response rating (0 to 10 scale)” value (corn; Preemergence, Rate 250 g/ha) was 0, the “Plant response rating, Corn” value (corn; [7]) was 3 and the “Plant response rating, Crabgrass” value (crabgrass; [1]) was 3. The “Plant response rating, Crabgrass” value (crabgrass; [2]) was 4, the “Crabgrass plant response rating” value (crabgrass; [3]) was 5 and the “Plant response rating, Crabgrass” value (crabgrass; [4]) was 9. The “Crabgrass plant response rating” value (crabgrass; [5]) was 6, the “Crabgrass plant response rating” value (crabgrass; [6]) was 9 and the “Plant response rating, Crabgrass” value (crabgrass; [7]) was 10. The “Plant response rating, Rape” value (rape; [1]) was 0, the “Plant response rating, Rape” value (rape; [2]) was 0 and the “Rape plant response rating” value (rape; [3]) was 0. The “Plant response rating, Rape” value (rape; [4]) was 0, the “Rape plant response rating” value (rape; [5]) was 0 and the “Rape plant response rating” value (rape; [6]) was 0. For the same compound, the “Plant response rating, Rape” value (rape; [7]) was 5, the “Bedstraw plant response rating” value (bedstraw; [3]) was 3 and the “Plant response rating, Bedstraw” value (bedstraw; [4]) was 8. For the same compound, the “Bedstraw plant response rating” value (bedstraw; [5]) was 0, the “Bedstraw plant response rating” value (bedstraw; [6]) was 0 and the “Bedstraw plant response rating (0 to 10 scale)” value (bedstraw; Preemergence, Rate 250 g/ha) was 0. The “Plant response rating, Wheat” value (wheat; [1]) was 0, the “Plant response rating, Wheat” value (wheat; [2]) was 0 and the “Wheat plant response rating” value (wheat; [3]) was 0. The “Plant response rating, Wheat” value (wheat; [4]) was 3, the “Wheat plant response rating” value (wheat; [5]) was 0 and the “Wheat plant response rating” value (wheat; [6]) was 1. For the same compound, the “Plant response rating, Wheat” value (wheat; [7]) was 6, the “Plant response rating, Soybean” value (soybean; [1]) was 4 and the “Plant response rating, Soybean” value (soybean; [2]) was 4. The “Soybean plant response rating” value (soybean; [3]) was 5, the “Plant response rating, Soybean” value (soybean; [4]) was 6 and the “Soybean plant response rating” value (soybean; [5]) was 0. For the same compound, the “Soybean plant response rating” value (soybean; [6]) was 0, the “Plant response rating, Soybean” value (soybean; [7]) was 1 and the “Plant response rating, Rice (0 to 10 scale, 0 is no effect, 10 is complete control)” value (rice; [8]) was 0. The “Rice plant response rating (0 to 10 scale, 0 is no effect, 10 is complete control)” value (rice; [9]) was 0, the “Rice plant response rating” value (rice; [10]) was 0 and the “Rice plant response rating” value (rice; [11]) was 0. For the same compound, the “Plant response rating, S. Flatsedge (0 to 10 scale, 0 is no effect, 10 is complete control)” value (smallflower flatsedge; [8]) was 0, the “S. Flatsedge plant response rating (0 to 10 scale, 0 is no effect, 10 is complete control)” value (smallflower flatsedge; [9]) was 0 and the “S. Flatsedge plant response rating” value (smallflower flatsedge; [10]) was 0. For the same compound, the “S. Flatsedge plant response rating” value (smallflower flatsedge; [11]) was 0, the “Plant response rating, Velvetleaf” value (velvetleaf; [1]) was 0 and the “Plant response rating, Velvetleaf” value (velvetleaf; [2]) was 0. The “Velvetleaf plant response rating” value (velvetleaf; [3]) was 0, the “Plant response rating, Velvetleaf” value (velvetleaf; [4]) was 4 and the “Velvetleaf plant response rating” value (velvetleaf; [5]) was 1. For the same compound, the “Velvetleaf plant response rating” value (velvetleaf; [6]) was 4, the “Plant response rating, Velvetleaf” value (velvetleaf; [7]) was 7 and the “Plant response rating, B. signalgrass” value (surinam grass; [1]) was 0. The “Plant response rating, B. signalgrass” value (surinam grass; [2]) was 0, the “B. signalgrass plant response rating” value (surinam grass; [3]) was 4 and the “Plant response rating, B. signalgrass” value (surinam grass; [4]) was 7. For the same compound, the “B. signalgrass plant response rating” value (surinam grass; [5]) was 3, the “B. signalgrass plant response rating” value (surinam grass; [6]) was 7 and the “B. signalgrass plant response rating (0 to 10 scale, 0 is no effect, 10 is complete control)” value (surinam grass; Preemergence, Rate 250 g/ha) was 8. The “B. signalgrass plant response rating” value (surinam grass; [7]) was 8, the “Plant response rating, Ducksalad (0 to 10 scale, 0 is no effect, 10 is complete control)” value (duck salad; [8]) was 0 and the “Ducksalad plant response rating (0 to 10 scale, 0 is no effect, 10 is complete control)” value (duck salad; [9]) was 0. For the same compound, the “Ducksalad plant response rating” value (duck salad; [10]) was 0, the “Ducksalad plant response rating” value (duck salad; [11]) was 0 and the “Plant response rating, Cocklebur” value (cocklebur; [1]) was 0. The “Plant response rating, Cocklebur” value (cocklebur; [2]) was 0, the “Cocklebur plant response rating” value (cocklebur; [3]) was 0 and the “Plant response rating, Cocklebur” value (cocklebur; [4]) was 1. The “Cocklebur plant response rating” value (cocklebur; [5]) was 0, the “Cocklebur plant response rating” value (cocklebur; [6]) was 0 and the “Cocklebur plant response rating (0 to 10 scale)” value (cocklebur; Preemergence, Rate 250 g/ha) was 0. For the same compound, the “Plant response rating, Cocklebur” value (cocklebur; [7]) was 0, the “Plant response rating, Wild oats” value (wild oat; [1]) was 0 and the “Plant response rating, Wild oats” value (wild oat; [2]) was 0. The “Wild oats plant response rating” value (wild oat; [3]) was 0, the “Plant response rating, Wild oats” value (wild oat; [4]) was 0 and the “Wild oats plant response rating” value (wild oat; [5]) was 3. For the same compound, the “Wild oats plant response rating” value (wild oat; [6]) was 8, the “Plant response rating, Wild oats” value (wild oat; [7]) was 8 and the “Plant response rating, Sugarbeets” value (sugar beet; [1]) was 0. The “Plant response rating, Sugarbeets” value (sugar beet; [2]) was 0, the “Sugarbeets plant response rating” value (sugar beet; [3]) was 0 and the “Plant response rating, Sugarbeets” value (sugar beet; [4]) was 0. For the same compound, the “Sugarbeets plant response rating” value (sugar beet; [5]) was 0, the “Sugarbeets plant response rating” value (sugar beet; [6]) was 4 and the “Plant response rating, Sugarbeets” value (sugar beet; [7]) was 5. The “Plant response rating, Giant foxtail” value (giant foxtail; [1]) was 7, the “Plant response rating, Giant foxtail” value (giant foxtail; [2]) was 7 and the “Giant foxtail plant response rating” value (giant foxtail; [3]) was 7. The “Plant response rating, Giant foxtail” value (giant foxtail; [4]) was 9, the “Giant foxtail plant response rating” value (giant foxtail; [5]) was 10 and the “Giant foxtail plant response rating” value (giant foxtail; [6]) was 10. For the same compound, the “Plant response rating, Giant foxtail” value (giant foxtail; [7]) was 10, the “Plant response rating, Nutsedge” value (purple nutsedge; [1]) was 0 and the “Plant response rating, Nutsedge” value (purple nutsedge; [2]) was 0. The “Nutsedge plant response rating” value (purple nutsedge; [3]) was 0, the “Plant response rating, Nutsedge” value (purple nutsedge; [4]) was 0 and the “Nutsedge plant response rating” value (purple nutsedge; [5]) was 0. For the same compound, the “Nutsedge plant response rating” value (purple nutsedge; [6]) was 0, the “Blackgrass plant response rating” value (blackgrass; [3]) was 7 and the “Plant response rating, Blackgrass” value (blackgrass; [4]) was 8. The “Blackgrass plant response rating” value (blackgrass; [6]) was 8, the “Blackgrass plant response rating (0 to 10 scale)” value (blackgrass; Preemergence, Rate 250 g/ha) was 8 and the “Blackgrass plant response rating” value (blackgrass; [7]) was 9. The “Plant response rating, Redroot pigweed” value (pigweed; [1]) was 0, the “Plant response rating, Redroot pigweed” value (pigweed; [2]) was 2 and the “Redroot pigweed plant response rating” value (pigweed; [3]) was 2. For the same compound, the “Plant response rating, Redroot pigweed” value (pigweed; [4]) was 4, the “Redroot pigweed plant response rating” value (pigweed; [5]) was 4 and the “Redroot pigweed plant response rating” value (pigweed; [6]) was 10. For the same compound, the “Plant response rating, Redroot pigweed” value (pigweed; [7]) was 10, the “Plant response rating, Barnyardgrass (0 to 10 scale, 0 is no effect, 10 is complete control)” value (bamyardgrass; [8]) was 0 and the “Barnyardgrass plant response rating (0 to 10 scale, 0 is no effect, 10 is complete control)” value (bamyardgrass; [9]) was 0. For the same compound, the “Barnyardgrass plant response rating” value (bamyardgrass; [10]) was 0, the “Barnyardgrass plant response rating” value (bamyardgrass; [11]) was 0 and the “Plant response rating, Morningglory” value (morningglory; [1]) was 1. The “Plant response rating, Morningglory” value (morningglory; [2]) was 1, the “Morningglory plant response rating” value (morningglory; [3]) was 1 and the “Plant response rating, Morningglory” value (morningglory; [4]) was 1. For the same compound, the “Morningglory plant response rating” value (morningglory; [5]) was 0, the “Morningglory plant response rating” value (morningglory; [6]) was 0 and the “Plant response rating, Morningglory” value (morningglory; [7]) was 0.
